Assay results reported in patent US10934332B2, “Structure-based peptide inhibitors that target the Tau VQIINK fibrillization segment” (THE REGENTS OF THE UNIVERSITY OF CALIFORNIA, priority 2017, dated 2021).
pIC50: −log10 of the molar value. Like-named read-outs stand apart in the source and are kept apart here. No end group written: not given here.

Key:
[1] = system: Full-length Tau-YFP biosensor cells seeded with pre-formed Tau40 fibers; format: cell-based, human; conditions: for inhibition of seeding by pre-formed Tau40 fibers (in words): pre-formed Tau40 fibrils incubated with inhibitor before applying to biosensor cells
Experimental: To test whether VQIINK (SEQ ID NO: 11) inhibitors can cap pre-formed fibers to block their spread, Tau40 amyloid fibrils were incubated with varying concentrations of inhibitor before applying to biosensor cells and measuring seeding. In addition, a third VQIINK (SEQ ID NO: 11) inhibitor, RINK which contains an Arg at position 4, was also tested.
(§1) Engineered HEK293 cell lines stably expressing Tau40-YFP P301S, referred to as “tau biosensor cells” were engineered by Marc Diamond's lab at UTSW. Cells were maintained in DMEM (Life Technologies, cat. 11965092) supplemented with 10% (vol/vol) FBS (Life Technologies, cat. A3160401), 1% penicillin/streptomycin (Life Technologies, cat. 15140122), and 1% Glutamax (Life Technologies, cat. 35050061) at 37° C., 5% CO2 in a humidified incubator. Tau40 aggregates were prepared in PBS (pH 7.4) with 1 mM DTT by shaking 25 μM Tau40 with 0.5 mg/ml heparin in the presence or absence inhibitor peptide, as indicated. Fibers were sonicated in a cuphorn water bath for 3 minutes before seeding cells. For seeding, fibers were diluted in OptiMEM (Life Technologies, cat. 31985070) and transfected using Lipofectamine 2000 (Life Technologies, cat. 11668027) according to the manufacturer's instructions. After seeding, cells were imaged using a ZEISS Axio Observer D1 fluorescence microscope using the YFP fluorescence channel and Tau aggregates were counted in ImageJ software.

[2] = system: HEK293 biosensor cells stably expressing full-length Tau 4R1N P301S-EYFP; assay: Biosensor cell seeding with Tau40 fiber grown in the presence of inhibitor; format: cell-based, human; conditions: cells seeded with 125 nM Tau40 fiber grown with two-fold excess of inhibitor; about 61% in the absence of inhibitor
Text: Cells seeded with Tau40 fiber grown with MINK or WINK reduced the percentage of seeded cells to 23 and 41%, respectively.
as §1

[3] = molecular target: T1, Tau40 (Homo sapiens, UniProt P10636); assay: ThT assay of Tau40 fibril formation; format: biochemical; conditions: heparin, shaking 700 rpm, 37° C.
T1 construct: Human Tau40 (residues 1-441) was expressed in pET28b; His-tag (C); made in house; host or cells: BL21-Gold E. coli
T1 sequence (P10636 1-441 isoform P10636-8): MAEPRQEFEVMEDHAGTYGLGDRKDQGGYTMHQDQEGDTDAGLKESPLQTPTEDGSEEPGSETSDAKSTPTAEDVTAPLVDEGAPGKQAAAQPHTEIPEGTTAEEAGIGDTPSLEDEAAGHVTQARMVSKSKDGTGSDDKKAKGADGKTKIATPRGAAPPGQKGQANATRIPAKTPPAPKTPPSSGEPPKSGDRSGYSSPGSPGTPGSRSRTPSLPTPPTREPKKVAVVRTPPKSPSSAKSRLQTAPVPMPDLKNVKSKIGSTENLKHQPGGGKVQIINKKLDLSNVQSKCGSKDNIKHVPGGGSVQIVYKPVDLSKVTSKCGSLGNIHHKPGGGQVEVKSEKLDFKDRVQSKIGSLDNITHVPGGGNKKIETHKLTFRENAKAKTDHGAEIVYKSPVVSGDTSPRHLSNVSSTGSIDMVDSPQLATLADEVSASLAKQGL
Experimental: The effect on fibril formation of Tau40 of the two resulting VQIINK (SEQ ID NO: 11) inhibitors, MINK (which contains a Met at position 4 to disrupt interface A) and WINK (which instead contains a Trp) was evaluated in vitro using a ThT assay.
Human Tau40 (residues 1-441) was expressed in pET28b with a C-terminal His-tag in BL21-Gold E. coli cells grown in TB to an OD600=0.8. Cells were induced with 0.5 mM IPTG for 3 hours at 37° C. and lysed by sonication in 50 mM Tris (pH 8.0) with 500 mM NaCl, 20 mM imidazole, 1 mM beta-mercaptoethanol, and HALT protease inhibitor. Cells were lysed by sonication, clarified by centrifugation at 15,000 rpm for 15 minutes, and passed over a 5 ml HisTrap affinity column. The column was washed with lysis buffer and eluted over a gradient of imidazole from 20 to 300 mM. Fractions containing purified Tau40 were dialyzed into 50 mM MES buffer (pH 6.0) with 50 mM NaCl and 1 mM beta-mercaptoethanol and purified by cation exchange as described for K18. Peak fractions were polished on a HiLoad 16/600 Superdex […] in 1×PBS (pH 7.4), and concentrated to ˜20-60 mg/ml by ultrafiltration using a 10 kDa cutoff.
Concentrated Tau protein was diluted into PBS buffer (pH 7.4) to a final concentration as indicated in the text. Proteins were shaken as solutions containing 75 μM ThT, 0.5 mg/ml heparin, 1 mM DTT, and a two-fold molar excess of inhibitor (when indicated) in 96-well plates with a plastic bead to enhance agitation. ThT fluorescence was measured with excitation and emission wavelengths of 440 and 480 nm, and averaged curves were generated from duplicate measurements.

[4] = 10 μM Tau40, two-fold mole excess of inhibitor
[5] = 25 μM Tau40, two-fold mole excess of inhibitor

Row | Substance | inhibition of seeding by pre-formed Tau40 fibers (in words) [1] | pIC50 [1] | seeding by Tau40 fibers in biosensor cells (fluorescence images) ([1]; 5 μM inhibitor) | seeding by Tau40 fibers in biosensor cells (fluorescence images) ([1]; 25 μM inhibitor) | percentage of seeded cells (cells with intracellular aggregates) [2] | Tau40 fibril formation (ThT fluorescence) [3, 4] | Tau40 fibril formation (ThT fluorescence) [3, 5]
1 | W-WINK: Phase 2 inhibitor: WINK incorporating a Trp steric clash at position 3 (DVWWINKKRK) | performed more poorly than W-MINK | – | – | – | – | – | –
2 | DVWMINKKRK [W-MINK, DVWMINKKRK] | – | 5.05 | Tau40 fibers are still able to induce seeding | seeding by Tau40 fibers is no longer observed | – | – | –
3 | DVQRINKKRK | inhibited more poorly than MINK and WINK | – | – | – | – | – | –
4 | DVQMINKKRK [MINK, DVQMINKKRK] | inhibit seeding by Tau40 fibers in a concentration dependent fashion | 4.66 | – | – | 23% | completely inhibiting any detectable Tau40 fibril formation for at least 60 hours | reduced Tau40 aggregation to about half
5 | DVQWINKKRK [WINK, DVQWINKKRK] | inhibit seeding by Tau40 fibers in a concentration dependent fashion | 4.60 | – | – | 41% | reducing the amount of Tau40 aggregation to about half | reduced Tau40 aggregation to about half
